Test results from patent US11000033B2, “Ketone or oxime compound, and herbicide” (NISSAN CHEMICAL CORPORATION, priority 2014, dated 2021).

Experiments:
Assay type in all cases: in vivo
Digitaria ciliaris = test: Test Example 5: herbicidal effect by foliage application, plastic box (symbol F); details: 320 g/ha, 3 weeks after application
In short: (§1)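 Seeds were sown in sterilized diluvial soil, covered with about 1.5 cm of soil and grown 14 days in a greenhouse at 25° C. to 30° C. An emulsifiable formulation diluted in water to a set rate was sprayed over foliage, and injury was scored 3 weeks later.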

Abutilon theophrasti = test: Test Example 4: herbicidal effect by soil treatment (symbol M)
In short: (§2)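 Seeds were sown in sterilized diluvial soil, covered with about 1.5 cm of soil, and the soil surface was sprayed with a water-diluted emulsion of the compound at a predetermined rate. Plants grew in a greenhouse at 25° C. to 30° C.; effects were scored visually 3 weeks after application.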

[1] = tested on: Echinochloa oryzacola Vasing.; test: Test Example 2: herbicidal activity, application during weed generation in submerged conditions (symbol A); details: Table 23; application herbicide amount 320 g/ha; grade 0-5 by criteria of Test Example 1
In short: (§3)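 Seeds sown in flooded alluvial soil (4 cm water) were grown in a 25-30° C greenhouse. At the one- to two-leaf stage, diluted emulsion of compound was applied to the water surface at a predetermined rate. Effect was scored 3 weeks later.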

Veronica persica = test: Test Example 5: herbicidal effect by foliage application, plastic box (symbol R); details: 320 g/ha, 3 weeks after application
In short: as §1

corn [2] = test: Test Example 5: effect on crop by foliage application, plastic box (symbol c); details: 320 g/ha, 3 weeks after application
In short: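 Crop and weed seeds sown in spots in sterilized diluvial soil in plastic boxes and covered with about 1.5 cm soil. Plants raised in a greenhouse at 25° C. to 30° C. for foliar application.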

Alopecurus myosuroides [3] = test: Test Example 4: herbicidal effect by soil treatment (symbol J)
In short: as §2

Avena fatua = test: Test Example 4: herbicidal effect by soil treatment (symbol I)
In short: as §2

Alopecurus myosuroides [4] = test: Test Example 5: herbicidal effect by foliage application, plastic box (symbol J); details: 320 g/ha, 3 weeks after application
In short: as §1

Apera spica-venti = test: Test Example 4: herbicidal effect by soil treatment (symbol L)
In short: as §2

corn [5] = test: Test Example 4: effect on crop by soil treatment (symbol c); details: for c: corn, effect grade on crop: 320 g/ha
In short: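 Seeds were sown in spots on sterilized diluvial soil in a plastic box and covered with about 1.5 cm of soil. Plants were then grown in a greenhouse at 25° C. to 30° C.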

transplanted rice plant = test: Test Example 1: effect on crop, application before weed generation in submerged conditions (symbol a); details: application herbicide amount 320 g/ha
In short: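 Alluvial soil pots flooded to 4 cm water, sown with Echinochloa oryzacola, Scirpus juncoides and Monochoria vaginalis, then transplanted with 2.5 leaf stage rice seedlings; pre-emergence application. Greenhouse 25° C. to 30° C.; scored 0–5 by herbicidal ratio 3 weeks after application.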

[6] = tested on: Echinochloa crus-galli var. crus-galli; test: Test Example 3: herbicidal effect by foliage application, Wagner pot (symbol H); details: application herbicide amount 320 g/ha; for H (Echinochloa crus-galli var. crus-galli) herbicidal effect grade: Table 24
In short: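 Plants sown in submerged alluvial soil (water depth 0.1–0.5 cm) in a 25–30 °C greenhouse and grown 14 days. An emulsion of the compound diluted in water to a set herbicide amount was sprayed uniformly on foliage. Effect on each plant scored 3 weeks after application.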

Scirpus juncoides = test: Test Example 2: herbicidal activity, application during weed generation in submerged conditions (symbol B); details: Table 23; application herbicide amount 320 g/ha; grade 0-5 by criteria of Test Example 1
In short: as §3

Amaranthus retroflexus = test: Test Example 5: herbicidal effect by foliage application, plastic box (symbol N); details: 320 g/ha, 3 weeks after application
In short: as §1

[7] = application herbicide amount 320 g/ha

Row | SMILES | F: Digitaria ciliaris, herbicidal effect (criteria 0-5) (Digitaria ciliaris) | M: Abutilon theophrasti, herbicidal effect grade (Abutilon theophrasti; 320 g/ha) | Herbicidal effect grade, A: Echinochloa oryzacola Vasing. [1] | R: Veronica persica, herbicidal effect (criteria 0-5) (Veronica persica) | c: corn, effect on crop (criteria 0-5) (corn [2]) | J: Alopecurus myosuroides, herbicidal effect grade (Alopecurus myosuroides [3]; 320 g/ha) | I: Avena fatua, herbicidal effect grade (Avena fatua; 320 g/ha) | Herbicidal effect grade, B: Scirpus juncoides (Scirpus juncoides) | F: Digitaria ciliaris, herbicidal effect grade (Digitaria ciliaris) | Herbicidal effect grade, M: Abutilon theophrasti (Abutilon theophrasti; [7]) | R: Veronica persica, herbicidal effect grade (Veronica persica) | c: corn, effect on crop grade (corn [2]) | Herbicidal effect grade, J: Alopecurus myosuroides (Alopecurus myosuroides [3]; [7]) | Herbicidal effect grade, I: Avena fatua (Avena fatua; [7]) | J: Alopecurus myosuroides, herbicidal effect grade (Alopecurus myosuroides [4]) | Herbicidal effect grade, L: Apera spica-venti (Apera spica-venti; [7]) | Effect on crop grade, c: corn (corn [5]; [7]) | a (transplanted rice plant) effect on crop grade (transplanted rice plant) | H (Echinochloa crus-galli var. crus-galli) herbicidal effect grade [6] | N: Amaranthus retroflexus, herbicidal effect grade (Amaranthus retroflexus) | further results
1 | CC(CC1CC(O)=C(c2c(C)cc(C)cc2C)C1=O)=NOCc1ccccc1C(F)(F)F (stereo not drawn) [1-116] | 5 (Herbicidal ratio of 90% or more (almost completely withered)) | 2 (Herbicidal ratio of 20% or higher and lower than 40%) | 2 (Herbicidal ratio of 20% or higher and lower than 40%) | 3 (Herbicidal ratio of 40% or higher and lower than 70%) | 5 (Herbicidal ratio of 90% or more (almost completely withered)) | 4 (Herbicidal ratio of 70% or higher and lower than 90%) | 3 (Herbicidal ratio of 40% or higher and lower than 70%) | 3 (Herbicidal ratio of 40% or higher and lower than 70%) |  |  |  |  |  |  |  |  |  |  |  |  | J: Alopecurus myosuroides, herbicidal effect (criteria 0-5) (Alopecurus myosuroides [4]): 5 (Herbicidal ratio of 90% or more (almost completely withered)); L: Apera spica-venti, herbicidal effect grade (Apera spica-venti; 320 g/ha): 3 (Herbicidal ratio of 40% or higher and lower than 70%); c: corn, effect grade on crop (corn [5]): 0 (Herbicidal ratio of 5% or lower (almost no effect)); Effect grade on crop, a: transplanted rice plant (transplanted rice plant): 3 (Herbicidal ratio of 40% or higher and lower than 70%); herbicidal effect on H (Echinochloa crus-galli var. crus-galli), grade 0-5 [6]: 5 (Herbicidal ratio of 90% or more (almost completely withered)); N: Amaranthus retroflexus, herbicidal effect (criteria 0-5) (Amaranthus retroflexus): 0 (Herbicidal ratio of 5% or lower (almost no effect))
2 | CC#Cc1cc(C)c(C2=C(O)CC(CC(=NOCCOC)C3CC3)C2=O)c(C)c1 (stereo not drawn) [9-021] |  |  | 5 (Herbicidal ratio of 90% or more (almost completely withered)) |  |  |  |  | 5 (Herbicidal ratio of 90% or more (almost completely withered)) | 5 (Herbicidal ratio of 90% or more (almost completely withered)) | 1 (Herbicidal ratio of 5% or higher and lower than 20%) | 4 (Herbicidal ratio of 70% or higher and lower than 90%) | 5 (Herbicidal ratio of 90% or more (almost completely withered)) | 5 (Herbicidal ratio of 90% or more (almost completely withered)) | 1 (Herbicidal ratio of 5% or higher and lower than 20%) | 5 (Herbicidal ratio of 90% or more (almost completely withered)) | 5 (Herbicidal ratio of 90% or more (almost completely withered)) | 3 (Herbicidal ratio of 40% or higher and lower than 70%) | 5 (Herbicidal ratio of 90% or more (almost completely withered)) | 5 (Herbicidal ratio of 90% or more (almost completely withered)) | 2 (Herbicidal ratio of 20% or higher and lower than 40%) | 
3 | COC(=O)C(C(=O)C1CC1)C1CC(O)=C(c2c(C)cc(Br)cc2C)C1=O (mixture of isomers) [10-002] |  |  | 1 (Herbicidal ratio of 5% or higher and lower than 20%) |  |  |  |  | 0 (Herbicidal ratio of 5% or lower (almost no effect)) | 5 (Herbicidal ratio of 90% or more (almost completely withered)) | 0 (Herbicidal ratio of 5% or lower (almost no effect)) | 0 (Herbicidal ratio of 5% or lower (almost no effect)) | 5 (Herbicidal ratio of 90% or more (almost completely withered)) | 0 (Herbicidal ratio of 5% or lower (almost no effect)) | 3 (Herbicidal ratio of 40% or higher and lower than 70%) | 4 (Herbicidal ratio of 70% or higher and lower than 90%) | 3 (Herbicidal ratio of 40% or higher and lower than 70%) | 0 (Herbicidal ratio of 5% or lower (almost no effect)) | 1 (Herbicidal ratio of 5% or higher and lower than 20%) | 5 (Herbicidal ratio of 90% or more (almost completely withered)) | 0 (Herbicidal ratio of 5% or lower (almost no effect)) | 
4 | Cc1cc(C)c(C2=C(O)CC(CC(=NOCC(F)(F)F)C3CC3)C2=O)c(C)c1 (stereo not drawn) [1-131] | 0 (Herbicidal ratio of 5% or lower (almost no effect)) | 0 (Herbicidal ratio of 5% or lower (almost no effect)) | 4 (Herbicidal ratio of 70% or higher and lower than 90%) | 4 (Herbicidal ratio of 70% or higher and lower than 90%) | 3 (Herbicidal ratio of 40% or higher and lower than 70%) | 5 (Herbicidal ratio of 90% or more (almost completely withered)) | 3 (Herbicidal ratio of 40% or higher and lower than 70%) | 4 (Herbicidal ratio of 70% or higher and lower than 90%) |  |  |  |  |  |  |  |  |  |  |  |  | J: Alopecurus myosuroides, herbicidal effect (criteria 0-5) (Alopecurus myosuroides [4]): 5 (Herbicidal ratio of 90% or more (almost completely withered)); L: Apera spica-venti, herbicidal effect grade (Apera spica-venti; 320 g/ha): 5 (Herbicidal ratio of 90% or more (almost completely withered)); c: corn, effect grade on crop (corn [5]): 0 (Herbicidal ratio of 5% or lower (almost no effect)); Effect grade on crop, a: transplanted rice plant (transplanted rice plant): 4 (Herbicidal ratio of 70% or higher and lower than 90%); herbicidal effect on H (Echinochloa crus-galli var. crus-galli), grade 0-5 [6]: 5 (Herbicidal ratio of 90% or more (almost completely withered)); N: Amaranthus retroflexus, herbicidal effect (criteria 0-5) (Amaranthus retroflexus): 0 (Herbicidal ratio of 5% or lower (almost no effect))
5 | COCCON=C(C)CC1CC(O)=C(c2c(C)cc(Br)cc2C)C1=O (stereo not drawn) [9-017] |  |  | 1 (Herbicidal ratio of 5% or higher and lower than 20%) |  |  |  |  | 0 (Herbicidal ratio of 5% or lower (almost no effect)) | 4 (Herbicidal ratio of 70% or higher and lower than 90%) | 0 (Herbicidal ratio of 5% or lower (almost no effect)) | 0 (Herbicidal ratio of 5% or lower (almost no effect)) | 5 (Herbicidal ratio of 90% or more (almost completely withered)) | 0 (Herbicidal ratio of 5% or lower (almost no effect)) | 0 (Herbicidal ratio of 5% or lower (almost no effect)) | 3 (Herbicidal ratio of 40% or higher and lower than 70%) | 0 (Herbicidal ratio of 5% or lower (almost no effect)) | 0 (Herbicidal ratio of 5% or lower (almost no effect)) | 4 (Herbicidal ratio of 70% or higher and lower than 90%) | 5 (Herbicidal ratio of 90% or more (almost completely withered)) | 0 (Herbicidal ratio of 5% or lower (almost no effect)) | 
6 | CCC(CC1CC(O)=C(c2c(C)cc(Br)cc2OC)C1=O)=NOC (mixture of isomers) [13-001] |  |  | 5 (Herbicidal ratio of 90% or more (almost completely withered)) |  |  |  |  | 0 (Herbicidal ratio of 5% or lower (almost no effect)) | 5 (Herbicidal ratio of 90% or more (almost completely withered)) |  | 0 (Herbicidal ratio of 5% or lower (almost no effect)) | 5 (Herbicidal ratio of 90% or more (almost completely withered)) |  |  | 5 (Herbicidal ratio of 90% or more (almost completely withered)) |  |  | 5 (Herbicidal ratio of 90% or more (almost completely withered)) | 5 (Herbicidal ratio of 90% or more (almost completely withered)) | 0 (Herbicidal ratio of 5% or lower (almost no effect)) | M: Abutilon theophrasti, herbicidal effect grade (Abutilon theophrasti; [7]): 0 (Herbicidal ratio of 5% or lower (almost no effect)); J: Alopecurus myosuroides, herbicidal effect grade (Alopecurus myosuroides [3]; [7]): 4 (Herbicidal ratio of 70% or higher and lower than 90%); I: Avena fatua, herbicidal effect grade (Avena fatua; [7]): 2 (Herbicidal ratio of 20% or higher and lower than 40%); L: Apera spica-venti, herbicidal effect grade (Apera spica-venti; [7]): 5 (Herbicidal ratio of 90% or more (almost completely withered)); c: corn, effect on crop grade (corn [5]; [7]): 5 (Herbicidal ratio of 90% or more (almost completely withered))
